Measured values taken from paper PMC4810398, “Protein-Flavonoid Interaction Studies by a Taylor Dispersion Surface Plasmon Resonance (SPR) Technique: A Novel Method to Assess Biomolecular Interactions” (Biosensors, 2016).
“And” between values parts separate entries of the source, which are not always exact repeats. Identical values can stand only once. Like-named read-outs stand apart in the source and are kept apart here.

What was measured:
[1] = target: T1, glutathione S-transferase pi isoform-1 (GSTP1) (Homo sapiens, UniProt P09211); assay: Taylor dispersion (OneStep) SPR, equilibrium analysis of flavonoids on immobilized GSTP1; conditions: GSTP1, one binding site, 1:1 equilibrium analysis model, 25 °C
T1 construct: purchased Fitzgerald Industries International
Procedure: (§1) Hydroxyl-gel modified sensor chips and coupling reagents for the Pioneer SPR instrument (SensiQ Technologies, Oklahoma City, OK, USA) were obtained from Xantec (Duesseldorf, Germany). […] All analyses were performed at 25 °C. 10 mM HEPES (pH 7.4) with 150 mM NaCl, 0.005% Tween-20, 1.26 mM EDTA, and 5% DMSO was used as the running buffer.
(§2) HSA (essentially fatty acid free; Sigma Aldrich, St. Louis, MO, USA) and GSTP1 (Fitzgerald Industries International, North Acton, MA, USA) (50 μg/mL in 10 mM sodium acetate, pH 5.0) were immobilized on polycarboxylate hydrogel sensor chip surfaces using a standard amine-coupling protocol (flow rate of 10 μL/min) to obtain a density of 10–12 kRU [18]. Each of the four flavonoids was dissolved in DMSO to achieve a high concentration, then further diluted to a final 5% DMSO concentration in running buffer. Typically, the flavonoid concentration series spanned 0.01–500 μM. Five blanks were analyzed at the beginning of the analysis, and the remaining blanks were randomly injected throughout the analysis for double-referencing purposes.
(§3) In this study, we explored the SensiQ Pioneer’s dynamic SPR capability (also known as the OneStep® injection method), which is essentially a Taylor dispersion to create a gradient injection to quantify biomolecular interactions. In the Taylor dispersion method, analyte concentration is initially uniform, but it gradually changes into a sigmoidal gradient due to the combined actions of analyte diffusion and convective laminar flow within the dispersion capillary. This method saves sample preparation time, lessens the need for limited-supply sample materials, and eliminates possible human errors in the preparation of sample dilutions. Since the compounds are screened over a broader dilution range, content-rich data can be obtained from the preliminary screening step itself, and oftentimes, secondary screening can be avoided. A Taylor dispersion gradient injection of sucrose (3% w/v in running buffer) was performed in parallel as a diffusion standard to account for experimental deviations such as buffer viscosity, flow rate, temperature, etc. The analytes were injected in running buffer using the same Taylor diffusion gradient injection mode with a flow rate of 25 μL/min.
SPR response data (sensorgrams) were zeroed at the beginning of each injection and double referenced. For kinetic analyses, the responses were plotted against the analyte concentration and fit to a 1:1 (A + B = AB) or 1:2 (A + 2B = AB1 + AB2) binding model using Qdat analysis software (SensiQ Technologies, Inc., Oklahoma City, OK, USA) and GraphPad Prism 5.04 (GraphPad Software Inc., La Jolla, CA, USA). […]

[2] = target: T2, human serum albumin (HSA) (Homo sapiens, UniProt P02768); assay: Taylor dispersion (OneStep) SPR, kinetic analysis of flavonoids on immobilized HSA; assay type: binding; conditions: for kon / koff: pH 7.4, HSA
T2 construct: purchased Sigma Aldrich
Procedure: as §1, §2, §3
SPR response data (sensorgrams) were zeroed at the beginning of each injection and double referenced. For kinetic analyses, the responses were plotted against the analyte concentration and fit to a 1:1 (A + B = AB) or 1:2 (A + 2B = AB1 + AB2) binding model using Qdat analysis software (SensiQ Technologies, Inc., Oklahoma City, OK, USA) and GraphPad Prism 5.04 (GraphPad Software Inc., La Jolla, CA, USA).

[3] = target: T2, human serum albumin (HSA); assay: Conventional (standard fixed-concentration injection) SPR, HSA-quercetin validation; assay type: binding
Procedure: as §1, §2
For assay validation, a conventional SPR method was used as a comparison. The interaction of HSA with quercetin was chosen for validation. For the conventional SPR method, analyte dilutions were prepared manually in a twofold dilution series starting with 500 μM as the highest concentration. […]

[4] = HSA, Site 1, 25 °C, OneStep SPR, global kinetic fit (1:2 model; kaempferol 1:1), read-out: KD (equilibrium dissociation constant), Site 1
[5] = human, Site 1, 25 °C, OneStep SPR, global kinetic fit (1:2 model; kaempferol 1:1), read-out: ka (association rate constant), Site 1
[6] = human, Site 1, 25 °C, OneStep SPR, global kinetic fit (1:2 model; kaempferol 1:1), read-out: kd (dissociation rate constant), Site 1
[7] = human, Site 2, 25 °C, OneStep SPR, 1:2 model, read-out: ka (association rate constant), Site 2
[8] = human, Site 2, 25 °C, OneStep SPR, 1:2 model, read-out: kd (dissociation rate constant), Site 2

T1 sequence (P09211 whole entry, canonical isoform): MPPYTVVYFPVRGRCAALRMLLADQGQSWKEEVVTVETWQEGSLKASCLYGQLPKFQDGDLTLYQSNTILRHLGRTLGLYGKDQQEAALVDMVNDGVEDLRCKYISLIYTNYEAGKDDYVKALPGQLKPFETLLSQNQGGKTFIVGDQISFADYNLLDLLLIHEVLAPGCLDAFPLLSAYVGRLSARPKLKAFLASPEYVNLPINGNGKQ
T2 sequence (P02768 25-609): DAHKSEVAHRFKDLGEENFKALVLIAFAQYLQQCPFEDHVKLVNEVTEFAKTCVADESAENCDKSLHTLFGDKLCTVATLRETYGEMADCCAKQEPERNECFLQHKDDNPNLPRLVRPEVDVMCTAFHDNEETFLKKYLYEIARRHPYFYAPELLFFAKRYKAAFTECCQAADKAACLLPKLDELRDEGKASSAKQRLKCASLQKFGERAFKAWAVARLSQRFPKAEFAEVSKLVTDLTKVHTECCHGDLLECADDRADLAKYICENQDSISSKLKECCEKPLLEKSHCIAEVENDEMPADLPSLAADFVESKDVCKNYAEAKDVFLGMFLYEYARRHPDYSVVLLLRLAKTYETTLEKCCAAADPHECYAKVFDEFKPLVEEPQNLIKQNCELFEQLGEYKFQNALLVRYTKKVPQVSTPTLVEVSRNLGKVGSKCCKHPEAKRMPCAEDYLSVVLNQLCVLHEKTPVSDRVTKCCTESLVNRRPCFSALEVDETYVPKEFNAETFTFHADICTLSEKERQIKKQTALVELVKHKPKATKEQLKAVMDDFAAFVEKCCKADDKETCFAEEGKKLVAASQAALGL

| SMILES | Kd [1] | Kd [2, 4] | kon [2, 5] | koff [2, 6] | Kd ([2]; human, pH 7.4) | kon [2, 7] | koff [2, 8] | Kd ([3]; HSA, conventional SPR, two fold dilution series from 500 μM, quadruplicate, 1:2 model, read-out: KD1 (affinity towards HSA)) | Kd ([3]; human, pH 7.4) |
| --- | --- | --- | --- | --- | --- | --- | --- | --- | --- |
| O=c1c(O)c(-c2ccc(O)cc2)oc2cc(O)cc(O)c12 [Kaempferol, kaempferol] | 45 ± 0.2 µM | 0.037 µM | 48400 ± 6e+06 M⁻¹ s⁻¹ | 0.002 ± 0.002 s⁻¹ |  |  |  |  |  |
| O=c1cc(-c2ccc(O)c(O)c2)oc2cc(O)cc(O)c12 [Luteolin, luteolin] | 31.5 ± 0.2 µM | 63.4 µM | 3200 ± 300000 M⁻¹ s⁻¹ | 0.205 ± 0.005 s⁻¹ | 406 µM | 17.1 ± 1 M⁻¹ s⁻¹ | 0.007 ± 0.001 s⁻¹ |  |  |
| O=c1c(O)c(-c2ccc(O)c(O)c2)oc2cc(O)cc(O)c12 [Quercetin, quercetin] | ~27.5 µM and 27.5 µM | 0.063 µM | 240000 ± 1e+08 M⁻¹ s⁻¹ | 0.016 ± 0.003 s⁻¹ | > 500 µM | 100 ± 1000 M⁻¹ s⁻¹ | 0.405 ± 0.004 s⁻¹ | 0.068 ± 0.002 µM | > 500 µM |
| Oc1ccc(/C=C/c2cc(O)cc(O)c2)cc1 [Resveratrol, resveratrol] | 78 ± 0.1 µM | 0.4 µM | 7000 ± 200000 M⁻¹ s⁻¹ | 0.003 ± 0.002 s⁻¹ | 180 µM | 2900 ± 600000 M⁻¹ s⁻¹ | 0.52 ± 0.003 s⁻¹ |  |  |
